# Laboratory results published in patent publication US20160319277A1, “METHODS OF IMPROVED PROTEIN PRODUCTION USING MIRNAs AND SIRNAs” (THE JOHNS HOPKINS UNIVERSITY, priority 2015, published 2016).
# Test system: HEK-CMV-Luc2-Hygro cells
# Assay: High-throughput genome-wide siRNA screen and validation screen for luciferase expression
# Assay type: cell-based, human
# Conditions: Table 4; primary screen, 72 h, negative control = 100%
# Procedure: The Silencer Select™ Human genome siRNA library (Ambion), which targets 21,585 human genes with 3 siRNAs per gene, was used for screening. Each siRNA is arrayed in an individual well (Corning 3570, 384 well, white, solid bottom plates). The transfection was done in duplicates: 0.8 pmol of each siRNA was spotted to a well of a 384-well plate (Corning) and 20 μL of serum-free DMEM containing 0.07 μL of Lipofectamine™ RNAiMax (Life Technologies) was then added to each well. This lipid-siRNA mixture was incubated at ambient temperature for 30 min prior to addition of 4000 cells in 20 μL of DMEM containing 20% FBS (Gibco). After incubating the transfected cells at 37° C. in 5% CO2 for 72 hours, 20 μL of ONE-Glo™ Reagent (Promega) was added to one set of replicates for ‘overall luciferase yield’ quantification and 20 μL of CellTiter-Glo™ Reagent (Promega) was added to the second set of replicates for ‘viable cell density’ measurement. All plates were incubated at room temperature for 20 minutes to stabilize the luminescent signal and the signal was then measured with PerkinElmer Envision 2104 Multilabel™ plate reader.
# The 56 genes which got targeted by at least two independent siRNAs (out of three) resulting in enhanced luciferase production with MAD-based z-score>3 from the primary screen were subjected to validation screen using 3 additional Silencer™ siRNAs (Ambion) with different sequences from those used in the primary screen. […] The transfection and assay processes were-the same as the primary genome-wide screen. Data visualization was performed in R computational environment (available on the World Wide Web at R-project.org/) by using ‘hexbin’ and ‘ggplot2’ packages.
# The screen generated end-point data for ‘overall luciferase yield’ and ‘viable cell density’ in each well. For each plate, the median value of the negative control wells was set as 100% and was used to normalize corresponding sample wells. The ‘overall luciferase yield’ and ‘viable cell density’ were exported as % of negative control and the median absolute deviation (MAD)-based z-score was calculated for each sample.
Substance,Viable cell density (%),per cell luciferase yield (%)
124 (GAAUAACCGUUGGUUUAAUTT; chemistry not given here; listed as Homo sapiens) [compound 124],65.083%,292.710%
125 (GGAACACUAUGAUGAGUUUTT; chemistry not given here; listed as Homo sapiens) [compound 125],63.672%,240.287%
126 (GGUGCUCUCGGUUGCACAATT; chemistry not given here; listed as Homo sapiens) [compound 126],82.333%,187.362%
127 (CCAACUACCUGAACGAUGATT; chemistry not given here; listed as Homo sapiens) [compound 127],54.133%,311.348%
128 (CAGCAAACCUUUGACCAGATT; chemistry not given here; listed as Homo sapiens) [compound 128],55.405%,277.511%
129 (GCUAUUUCCAGCGAAUAUATT; chemistry not given here; listed as Homo sapiens) [compound 129],81.492%,244.722%
130 (GGAGGAAUCUCGAAUGCGATT; chemistry not given here; listed as Homo sapiens) [compound 130],96.002%,173.284%
131 (GGAGAAAGAAUCAACGGAATT; chemistry not given here; listed as Homo sapiens) [compound 131],70.586%,284.565%
132 (GGACGGAAGCGAAAAUCGATT; chemistry not given here; listed as Homo sapiens) [compound 132],71.473%,216.209%
133 (GAACUUCAAUGGAAAACAUTT; chemistry not given here; listed as Homo sapiens) [compound 133],63.577%,250.367%
134 (GAUCGUUUGAGAGAACAAATT; chemistry not given here; listed as Homo sapiens) [compound 134],77.107%,210.336%
135 (CAGGUAGUGUAAGCCCUCATT; chemistry not given here; listed as Homo sapiens) [compound 135],66.872%,302.994%
136 (AGGUUACAGAGGACUCAGATT; chemistry not given here; listed as Homo sapiens) [compound 136],49.189%,299.886%
137 (GAACCGUCGCUACAAGACATT; chemistry not given here; listed as Homo sapiens) [compound 137],88.616%,212.905%
138 (CCCUCCUACUAUUACCCGUTT; chemistry not given here; listed as Homo sapiens) [compound 138],96.869%,162.999%
139 (GGAGAUAUGCAAAGCAGAATT; chemistry not given here; listed as Homo sapiens) [compound 139],83.011%,194.043%

Substance,Viable cell density (%),per cell luciferase yield (%)
140 (GUCCGAGUGUGGUUCUGUATT; chemistry not given here; listed as Homo sapiens) [compound 140],85.820%,180.401%
141 (AGAGGACCCAGAUUGUCUATT; chemistry not given here; listed as Homo sapiens) [compound 141],97.298%,183.386%
142 (AAGUCAACAUAGCCCGAAATT; chemistry not given here; listed as Homo sapiens) [compound 142],111.487%,145.707%
143 (GCAAAGAUAGCGAGAAAUATT; chemistry not given here; listed as Homo sapiens) [compound 143],75.599%,193.846%
144 (GGAUCACGCAGCUCAAGAUTT; chemistry not given here; listed as Homo sapiens) [compound 144],91.538%,161.634%
145 (CCAGUUCGACCUGAACAAATT; chemistry not given here; listed as Homo sapiens) [compound 145],85.750%,176.019%
146 (GACCUAUACUCAUUCUGCATT; chemistry not given here; listed as Homo sapiens) [compound 146],83.351%,171.308%
147 (GUUUCGACCUCGAUCCAGATT; chemistry not given here; listed as Homo sapiens) [compound 147],61.490%,256.085%
148 (CAGCCUCACCAAGCACAAATT; chemistry not given here; listed as Homo sapiens) [compound 148],85.866%,167.413%
149 (CGACCAUCAUGGAAAACAUTT; chemistry not given here; listed as Homo sapiens) [compound 149],57.472%,294.800%
150 (CGCUUUAACUGGAAGCUCUTT; chemistry not given here; listed as Homo sapiens) [compound 150],103.662%,146.993%
151 (GAAACUGCAUGAGAAGACATT; chemistry not given here; listed as Homo sapiens) [compound 151],59.084%,288.857%
152 (CGAUGUUCGUGGACAUUCUTT; chemistry not given here; listed as Homo sapiens) [compound 152],80.013%,234.608%
153 (CACUUUCCUGGGUAUUGUATT; chemistry not given here; listed as Homo sapiens) [compound 153],87.831%,171.072%
154 (CAACAGUACUUACCGAUGUTT; chemistry not given here; listed as Homo sapiens) [compound 154],115.513%,141.760%
155 (GCCUUGCUCCGAACCUUCATT; chemistry not given here; listed as Homo sapiens) [compound 155],94.839%,169.972%

# Same assay, conditions: Table 6; polyamine pathway gene siRNAs
Substance,Luciferase activity (%),Per cell luciferase yield (%),Viable cell number (%)
155 (GCCUUGCUCCGAACCUUCATT; chemistry not given here; listed as Homo sapiens) [compound 155],161.1%,169.9%,94.8%
